Values of other authors as cited in patent US20010014685A1, “Injectable pharmaceutical composition for treatment and reversal of erectile dysfunction” (USA DOCTORS PRODUCTS, INC., priority 1998, published 2001).

Tested on: erectile dysfunction
Conditions: injectable products including only prostaglandin-E1 / existing preparations

CCCCC[C@H](O)/C=C/[C@H]1[C@H](O)CC(=O)[C@@H]1CCCCCCC(=O)O [prostaglandin-E1]
efficacy for treatment of erectile dysfunction: ≤ 50%
